Test system: cutaneous wound in C57BL/6J mice
Test: Mouse cutaneous injury model of wound healing
Type: in vivo
Procedure: Under volatile anesthesia (5% isoflurane to effect), the shoulder and back region of each animal was shaved. A sharp punch (ID 6 mm) over their lumbar spine was applied to remove the skin, including panniculus carnosus and adherent tissues. Test substances were administered topically (TOP), immediately following cutaneous injury, once daily for 10 consecutive days. […] Wounds were traced onto clear plastic sheets and were measured by use of an ImageJ program (rsbweb.nih.gov/ij/), online from the National Institutes of Health (NIH). ImageJ is a public domain, Java-based image processing program developed at the NIH. Time to wound closure was estimated by comparing the area of the wound undergoing treatment to the areas of the wound undergoing control treatments. The percent closure of the wound (%) was calculated, and wound half-closure time (the time at which 50% of the cutaneous wound is closed, CT50) was analyzed by linear regression using Graph-Prism (Graph Software USA). At the end of experiment (10 days after the induction of the wound), animals were euthanized by CO2 gas inhalation. Blood was collected by heart puncture. Wound tissue and muscle were collected for immunohistochemical analyses and wound healing factor assays. HB increased the percent of wound closure in vivo in a mouse model of wound closure (FIG. 13). […] Twenty seven six-week-old male C57BL/6J mice, obtained from the Jackson Laboratory (Bar Harbor, Me.), were housed in individual chambers in a room maintained at a constant temperature with 12 h light-dark cycle. Mice had free access to food and water. Mice were allowed to adapt to new conditions for seven days and handling the mice was performed daily during this time to reduce the stress of physical manipulation. Mice were randomized into groups (n=9) according to body weight one day prior to dosing. Under volatile anesthesia (5% isoflurane to effect), the shoulder and back region of each animal was shaved. A sharp punch (ID 6 mm) over lumbar spine was applied to remove the skin including panniculus carnosus and adherent tissues. […] Pharmacol. 77: 1117-1124, 2009) as a positive control) was administered topically, immediately following cutaneous injury, and then daily for 10 days. To investigate the kinetics of wound healing, wound size was photographed and measured every two days with ImageJ software (rsbweb.nih.gov/ij/). […] The percent closure of the wound (%) was calculated, and time at which 50% of the cutaneous wound was closed (CT50) was analyzed by linear regression. […] Wound sizes were photographed and measured every 2 days for 10 days. Wound closure (%) relative to day 1 was determined every 2 days, and CT50 was calculated by linear regression. […]

[1] = 10 μg/mouse/day topically for 10 days

SMILES: CC[C@@H](C(C)C)[C@H](O)[C@@H](O)[C@@H](C)[C@H]1CC[C@H]2[C@@H]3COC(=O)[C@H]4C[C@H](O)[C@H](O)C[C@]4(C)[C@H]3CC[C@]12C [Compound 1, (22S,23S,24S)-2α,3α,22,23-tetrahydroxy-24 ethyl-β-homo-7-oxo-5α-cholestane-6-one]
- CT50, time at which 50% of the cutaneous wound is closed [1]: 5.4 ± 0.3 days
- cutaneous wound healing compared with vehicle [1]: significantly improved
- increase in speed of wound closure relative to control mice (10 μg/mouse/day topically, percent of original wound size): 2 fold

— patent US20140128357A1, “METHODS OF PRODUCING AND USING BRASSINOSTEROIDS TO PROMOTE GROWTH, REPAIR AND MAINTENANCE OF SKELETAL MUSCLE AND SKIN” (Rutgers University, priority 2010, published 2014)
